For the assay, the system named is T1, purified asparaginase from L. theobromae.
T1 construct: native extracellular enzyme purified from culture filtrate of asparagine-induced endophytic fungus (acetone, Q-FF, Sephadex G-100); about 70 kDa on SDS-PAGE
Briefly: direct Nesslerization of released ammonia; Lineweaver-Burk and Michaelis-Menten plots. The format is biochemical, Lasiodiplodia theobromae. The settings on record: asparagine 0-20 mM; standard assay pH 7, 37 °C. The text has this:
direct Nesslerization of released ammonia; Lineweaver-Burk and Michaelis-Menten plots on purified asparaginase from L. theobromae | Michaelis constant Km and maximum velocity Vmax of the purified asparaginase from L. theobromae were […]

With `NC(=O)C[C@H](N)C(=O)O` [asparagine], the Michaelis-Menten constant (Km) is 9.37 µM.

The values above are taken from paper PMC8775487, “Insights into Asparaginase from Endophytic Fungus Lasiodiplodia theobromae: Purification, Characterization and Antileukemic Activity” (International Journal of Environmental Research and Public …, 2022).
